Results from paper PMC3194046 (European journal of pharmacology, 2009).

Key:
[1] = system: dopamine (D2) receptor; settings: ref Kumagai et al., 2000; cited from earlier work
[2] = target: pure sigma1 receptor (Cavia porcellus, UniProt Q60492); settings: for inhibition of [125I]Iodoazidococaine photolabeling: 10 µM compound, 1 nM photoprobe; for relative inhibition of [125I]-Iodoazidococaine photolabeling: compounds at 0.1 µM, 1 µM and 10 µM
[3] = target: T1, sigma1 receptor (Cavia porcellus, UniProt Q60492); assay: Inhibition of [3H]-; type: binding
T1 sequence (Q60492 whole entry): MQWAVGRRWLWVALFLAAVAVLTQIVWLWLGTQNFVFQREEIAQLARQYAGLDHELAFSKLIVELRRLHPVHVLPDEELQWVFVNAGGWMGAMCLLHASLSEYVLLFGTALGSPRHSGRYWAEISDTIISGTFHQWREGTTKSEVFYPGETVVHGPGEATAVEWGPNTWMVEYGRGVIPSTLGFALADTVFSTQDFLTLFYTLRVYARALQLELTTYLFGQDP

[4] = target: T1, sigma1 receptor; assay: Inhibition of [3H]-; type: binding; settings: HEK-293 homogenates S1,SK1; 2 mM ATP, 5 mM MgCl2; concentrations as high as 100 µM
[5] = target: T2, sigma1 receptor in guinea pig liver membranes (Cavia porcellus, UniProt Q60492); assay: Competition binding of [3H]-
T2 sequence (Q60492 whole entry): as above

[6] = target: T2, sigma1 receptor in guinea pig liver membranes; assay: Saturation equilibrium binding of [3H]-; settings: saturation binding and Scatchard transformation
[7] = target: T3, sigma2 receptor (Rattus norvegicus, UniProt Q5U3Y7); assay: Sigma2 receptor binding with [3H]-DTG on rat liver membranes, 100 nM; settings: 100 nM (+)-pentazocine
T3 sequence (Q5U3Y7 1-176): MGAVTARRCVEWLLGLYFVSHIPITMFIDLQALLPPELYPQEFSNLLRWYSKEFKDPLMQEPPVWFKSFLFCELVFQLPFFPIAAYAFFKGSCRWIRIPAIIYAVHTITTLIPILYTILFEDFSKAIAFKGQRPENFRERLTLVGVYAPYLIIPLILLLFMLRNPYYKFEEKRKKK

[8] = target: T4, purified guinea pig sigma1 receptor (Cavia porcellus, UniProt Q60492); assay: Competition binding of [3H]-; settings: for inhibition of [3H]-(+)-pentazocine binding to the sigma1 receptor: Fig. 2A, 2B
T4 sequence (Q60492 whole entry): as the sequence (Q60492 whole entry) above

[9] = target: T4, purified guinea pig sigma1 receptor; settings: ref Moebius et al., 1997; Ramachandran et al., 2007; cited from earlier work
[10] = target: T2, sigma1 receptor in guinea pig liver membranes; settings: ref Moebius et al., 1997; Ramachandran et al., 2007; cited from earlier work

Sequence of pure sigma1 receptor (Q60492 whole entry): as the sequence (Q60492 whole entry) above

Compound	inhibition of [125I]Iodoazidococaine photolabeling [2]	affinity for the sigma2 receptor [7]	relative inhibition of [125I]-Iodoazidococaine photolabeling [2]	inhibition of [3H]-(+)-pentazocine binding to the sigma1 receptor [8]	further results
CCCCCCC[C@@H]1CC[C@@H](CCCC)N1 [(2R-trans)-2-Butyl-5-heptylpyrrolidine]	–	–	–	–	affinity for the dopamine (D2) receptor [1]: high affinity
CCCCCCCCCCCCC/C=C/[C@@H](O)[C@@H](N)CO [D-erythro-sphingosine]	inhibition of photolabeling	much lower binding affinity	–	–	Ki [3]: 3600 ± 600 nM; inhibition of [3H]-(+)-pentazocine binding [4]: did not show a significant inhibition; Ki [5]: 13000 ± 3100 nM; mode of inhibition of [3H]-(+)-pentazocine binding [6]: simple competitive interaction; Ki [8]: 140 ± 20 nM
CCCCCCCCCCCCC/C=C/[C@H](O)[C@@H](N)CO [L-threo-sphingosine]	–	–	–	–	fold more potent at the pure sigma1 receptor than the naturally occurring isomer ([8]; L-threo compared to naturally occurring isomer): approximately 10 fold
CCCCCCCCCCCCC/C=C/[C@@H](O)[C@H](CO)N(C)C [N, N dimethyl sphingosine]	inhibition of photolabeling	much lower binding affinity	marginally better than D-erythro sphingosine	–	–
CCCCCCCCCCCCN [dodecylamine]	–	–	–	–	Ki [8]: 183 ± 17 nM
CCCCCCCCCCCCCCC[C@@H](O)[C@@H](N)CO [sphinganine]	–	much lower binding affinity	–	–	–
CCCCCCCCCCCCC/C=C/[C@@H](O)[C@@H](N)COP(=O)(O)O [sphingosine-1 phosphate]	did not show significant inhibition	did not bind	not as effective	failed to do so	–
CCCCCCCCCCCCCN1CC(C)OC(C)C1 (stereo not drawn) [tridemorph]	–	–	–	–	affinity on the pure sigma1 receptor [9]: high affinity; affinity for the sigma1 receptor in guinea pig liver membranes [10]: high affinity
ceramide	–	–	not as effective	failed to inhibit	–
ceramide-1 phosphate	–	–	not as effective	failed to inhibit	–
